Entries after “also recorded” stand apart in the source; their conditions may differ.
Experiments:
BJ cells = test: Cell adhesion assay to VN on BJ cells; assay type: cell-based, human; details: FIG. 2(B): BJ cells treated with compounds at 50 µM vs DMSO vehicle (100%)
Description: The cell line BJ (ATCC CRL2522) was used as model of human skin fibroblasts. The cells were cultivated in Dulbecco’s Modified Eagle Medium (DMEM) containing fetal bovine serum at 10% (FBS) at 37° C. with CO2 at 5%.
The plates with 96 wells (Nunc, Roskilde, Denmark) were covered with VN (1 µg) or with 100 µl of 1% BSA deactivated with heat in PBS, as negative control, and incubated during the entire night at 4° C. The plates were then blocked 1 hour at ambient temperature with 1% BSA deactivated with heat in 1% PBS. The cells were detached with PBS containing 2 mM of EDTA and washed with DMEM lacking serum, they were counted, plated in the wells with a density of 10^5 cells/well and incubated for 1 hour at 37° C. in the presence of or in the absence of the selected compounds. The cells were then fixed with paraformaldehyde at 3% in PBS for 10 minutes and then incubated with methanol at 2% for 10 minutes. The cells were finally colored for 10 minutes with 0.5% crystal violet in 20% methanol, eluted with 0.1 mol/l of sodium citrate in 50% ethanol (pH 4.2) and the absorbance was measured at 540 nm with a spectrophotometer.

[1] = molecular target: T1, bond of purified uPAR to the VN (Homo sapiens, UniProt Q03405); test: Bond of soluble biotinylated uPAR to immobilized VN (ELISA); assay type: binding; details: FIG. 2(A): compounds at 50 µM vs DMSO vehicle (100%)
T1 construct: Soluble recombinant uPAR (suPAR; R&D System, Minneapolis, MN, USA); purchased R&D System
Description: Soluble recombinant uPAR (suPAR; R&D System, Minneapolis, MN, USA) was biotinylated and purified with the biotinylation module of the proteins ECL Amersham according to the producer’s instructions (GE Healthcare, Buckinghamshire, UK).
The (high-binding) plates with 96 wells (Corning, New York, USA) were covered with 0.5 µg/well of VN (Becton Dickinson Biosciences, Franklin Lakes, NJ, USA) diluted in PBS (0.08 M NaCl, 0.002 M KCl, 0.0115 M Na2HPO4, 0.002 M KH2PO4, pH 7.2) or bovine serum albumin (BSA), as negative control, and incubated at 4° C. for the entire night. After a washing in PBS, the residual bond sites were blocked with 200 µL of BSA at 1% in PBS, for 1 hour at ambient temperature. 25 nmol/L of biotinylated s-uPAR (diluted in PBS, 1 mg/mL of BSA), on its own or in the presence of selected compounds, were placed in the covered wells. The plates were maintained at 4° C. for 1 hour, washed with PBS containing 0.1% Tween 20 and then avidin marked with peroxidase (Amersham), diluted 1:1.500 in PBS containing 10 mg/mL of BSA. After further washings, the substrate of peroxidase o-phenylenediamine (Sigma, St. Louis, MO, USA) was added and left to react for 3 minutes. The reactions were stopped with 1 mol/L H2SO4 and the product was measured at 492 nm by using an automated plate reader (Bio-Rad, Munich, Germany).

T1 sequence (Q03405 23-305 limits assumed): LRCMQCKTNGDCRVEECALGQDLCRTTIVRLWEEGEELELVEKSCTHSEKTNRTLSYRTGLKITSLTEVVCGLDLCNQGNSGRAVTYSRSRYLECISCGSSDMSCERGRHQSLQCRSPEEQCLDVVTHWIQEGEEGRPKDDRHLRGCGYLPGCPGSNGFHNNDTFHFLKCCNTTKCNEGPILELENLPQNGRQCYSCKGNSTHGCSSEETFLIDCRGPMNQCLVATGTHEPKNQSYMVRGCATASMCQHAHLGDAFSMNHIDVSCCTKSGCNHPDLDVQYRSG

SMILES	inhibitory activity against cell adhesion to the VN (BJ cells)	inhibitory activity against the interaction of the uPAR with the VN in vitro [1]
Cc1ccc(C(C)(C)c2ccc(C)cc2O)c(O)c1 [Compound 3, 6,6′-(propan-2,2-diyl)bis(3-methylphenol)]	greater inhibitory activity	greater inhibitory activity
CC(C)(C)c1cc(Cl)c(O)c(Cc2cc(C(C)(C)C)cc(Cl)c2O)c1 [Compound 23, 6,6′-methylenebis(4-(tert-butyl)-2-chlorophenol)]	greater inhibitory activity; also recorded: considerable contribution	greater inhibitory activity
CCCc1cc(-c2ccc(O)c(CCC)c2)ccc1O [Compound 19, 3,3′-dipropyl[1,1′-biphenyl]-4,4′-diol]	greater inhibitory activity; also recorded: considerable contribution	greater inhibitory activity
Cc1cc(Cc2cc(C)cc(C(C)(C)C)c2O)c(O)c(C(C)(C)C)c1 [Compound 20, 6,6′-methylenebis(2-(tert-butyl)-4-methylphenol)]	greater inhibitory activity; also recorded: considerable contribution	greater inhibitory activity
